{"source": "patent US20200291082A1", "about": "“PREVENTION AND TREATMENT OF GRAFT-VERSUS-HOST-DISEASE WITH DEFENSINS” (priority 2017, published 2020)", "key": {"[1]": {"system": "Dextran Sodium Sulphate induced colitis", "experiment": "prophylactic murine 7-day Dextran Sodium Sulphate induced colitis model, oral and s.c. hBD2 versus oral cyclosporine (Example 4)", "format": "in vivo, C57BL/6 mice", "excerpt": "Anti-inflammatory effect of oral and s.c. administration of hBD2 versus oral cyclosporine in a prophylactic, murine, 7-day, Dextran Sodium Sulphate induced colitis model.\n80 male C57BL/6 mice housed in groups of five per cage were allocated to 7 different treatment groups. All animals had their drinking water supplemented with DSS 3% for 7 days to induce colitis characterized by epithelial damage, disruption of crypt architecture and a moderate inflammation characterized by accumulation of mononuclears and neutrophils in mucosa and submucosa. The animals were treated with oral hBD2 dosed at 0.6 mg/kg BID or 0.4 mg/kg TID; hBD2 dosed s.c. at 0.15 mg/kg BID or 0.1 mg/kg TID; or cyclosporine 50 mg/kg OD or water for 7 days.\nClinical assessment was conducted as per a scoring system (0=no blood in stool; 1=evidence of blood in stool and 2=severe bleeding). The animals were sacrificed on day 7 and colon removed for histological assessment."}, "[2]": {"system": "CD4+CD25+ Tcell transfer induced colitis", "experiment": "therapeutic murine 14 weeks CD4+CD25+ Tcell transfer induced colitis model (Example 6)", "format": "in vivo, SCID mice", "settings": "hBD2 1 mg/kg s.c. OD, Dexamethasone 0.3 mg/kg i.p. OD, Enbrel 100 μg/mouse s.c. twice weekly", "excerpt": "Efficacy of s.c. administration of hBD2 versus s.c. anti TNF-α (Enbrel) and intraperitoneal dexamethasone in a therapeutic, murine, 14 weeks, CD4+CD25+ Tcell transfer induced colitis model.\n70 female BALB/c mice housed in groups of five per cage were allocated to 7 different treatment groups. Colitis was induced in SCID mice by transplantation of CD4+CD25+ Tcells from BALB/c mice. Lymphocytes isolated from spleen and lymph nodes from BALB/c mice were subjected to negative selection of CD4+ Tcells. Afterwards, CD4+CD25+ cells were positively isolated by binding to the beads from the CD4+ Tcell suspensions and the CD4+CD25− were collected from the supernatant. The animals were treated with hBD2, 0.1 mg/kg s.c. OD; 1 mg/kg s.c. OD or 3 mg/kg s.c. OD or with mouse anti TNFα 100 μg/mouse s.c. twice weekly or with dexamethasone 0.3 mg/kg intraperitoneally OD or PBS s.c. as vehicle from day 7 and 86 consecutive days.\nClinical assessment was based on body weight loss, stool consistency and presence of blood per rectum. The animals were sacrificed on day 95 and colon removed for assessment of weight and myeloperoxidase activity."}, "[3]": {"system": "house dust mite model of allergic asthma", "experiment": "therapeutic intranasal versus oral hBD2 in murine house dust mite model of allergic asthma, lung histopathology and cytokines (Example 11)", "format": "in vivo, BALB/c mice", "experimental": "To determine and assess the efficacy of IN versus oral therapeutic intervention with administration of defensins in a murine house dust mite model of allergic asthma.\nTreatment regime: Female 7-10 weeks old BALB/c mice randomly allocated into 4 study groups one day prior to study start were subcutaneously (SC) sensitized to house dust mite (100 μg HDM in 200 μL saline plus Freund's complete adjuvant in 0.9% saline). Mice were intranasally (IN) challenged with HDM on day 14 (HDM 25 μg in 50 μL of saline). hBD2 was administered IN or orally (0.4 mg/kg TID IN; 0.4 mg/kg TID orally, 50 μL phosphate buffered saline) on day 14. The initial dose was administered 60 minutes prior to challenge, and the subsequent doses approximately 6 hours apart.\nLung tissue sampling: Lungs were removed from the thorax, snap frozen in liquid nitrogen and stored frozen at −80 degrees Celsius until analysis of cytokine concentration of IL-4, IL-5, IL-8 (KC), IL-9 and IL-13 in lung homogenate by ELISA. Lungs were inflated in situ in 10% buffered formalin, removed from thorax, placed individually in 10% buffered formalin, paraffin embedded in toto, sectioned and H&E/PAS stained.\nBlood sampling: All terminal blood samples were collected via jugular vein bleeds. Blood was sampled to Li-heparin tubes, put on ice and immediately centrifuged at 4° C. Plasma was separated and stored at -80° C. until the potential SCFA analysis. Lung tissue sampling: The lungs were exposed and excised by gently opening the thorax and by cutting down either side of the sternum and ribs and trimming back. Lungs from the first 6 animals per group were removed from thorax, snap frozen in liquid nitrogen and stored frozen at −80° C. until analysis of cytokine concentration by ELISA.\nLungs from the other 8 animals per group were inflated in situ with 10% buffered formalin, removed from thorax, placed individually in 10% buffered formalin, paraffin embedded in toto, sectioned and H&E/PAS stained. The paraffin blocks were retained for the IHC analysis.\nRead-Outs • Histopathology (H&E; PAS) (N=8/group; total N=32) • Cytokines in lung tissue homogenates (IL-4, IL-5, IL-8 (KC), IL-9 and IL-13) (N=6/group; total N=24)\nCellular influx (mononuclears, eosinophils, neutrophils) was assessed semi-quantitatively on H&E stained slides separately for peri-bronchial/bronchiolar and perivascular space as follows: • 0 absent • 1 few scattered inflammatory cells • 2 larger aggregates • 3 marked accumulation of cells\nOverall score for inflammation was calculated as the sum of all individual scores."}, "[4]": {"settings": "all four hBD2 dosing groups (oral 0.6 mg/kg BID, 0.4 mg/kg TID; s.c. 0.15 mg/kg BID, 0.1 mg/kg TID), cyclosporine 50 mg/kg OD, 7 days"}}, "note": "“Also recorded” adds a separate entry of the source. No end group written: not given here.", "data": [{"substance": "human beta defensin 2 (GIGDPVTCLKSGAICHPVFCPRRYKQIGTCGLPGTKCCKKP; not fully specified (bridges); ends and bridges not checked; listed as Homo sapiens) [hBD2]", "values": [{"measurement": "clinical score, s.c. versus oral dosing", "setting": "[1]; FIG. 15", "value": "seemed more efficacious than oral dosing"}, {"measurement": "clinical scores", "setting": "[1]; [4]", "value": "highly statistically significant improvement; also recorded: statistical significant effect of hBD2 on par with cyclosporine"}, {"measurement": "maintenance of colon length", "setting": "[1]; [4]", "value": "highly statistically significant improvement; also recorded: statistical significant effect of hBD2 on par with cyclosporine"}, {"measurement": "clinical score, TID versus BID dosing", "setting": "[1]; both administration routes", "value": "more efficacious than BID dosing; also recorded: superiority of TID dosing of hBD2 over BID dosing"}, {"measurement": "myeloperoxidase activity", "setting": "[2]; colon, day 95", "value": "statistically significant and similar effect; also recorded: on par with 100 μg/mouse anti TNF-α s.c. twice weekly (Enbrel) and 0.3 mg/kg dexamethasone intraperitoneally OD"}, {"measurement": "clinical score (body weight loss, stool consistency, presence of blood per rectum)", "setting": "[2]", "value": "statistically significant and similar effect on clinical score; also recorded: on par with 100 μg/mouse anti TNF-α s.c. twice weekly (Enbrel) and 0.3 mg/kg dexamethasone intraperitoneally OD"}, {"measurement": "colon weight", "setting": "[2]; day 95", "value": "statistically significant and similar effect on colon weight; also recorded: on par with 100 μg/mouse anti TNF-α s.c. twice weekly (Enbrel) and 0.3 mg/kg dexamethasone intraperitoneally OD"}, {"measurement": "IL-9 level in lung tissue homogenates", "setting": "[3]; IN administration", "value": "Significant effects"}, {"measurement": "IL-13 level in lung tissue homogenates", "setting": "[3]; IN administration", "value": "Significant effects"}, {"measurement": "histological inflammation of lung tissue", "setting": "[3]; hBD2 both oral and intranasal 0.4 mg/kg TID on day 14, versus HDM challenged vehicle", "value": "effectively inhibited the increase in histological inflammation of lung tissue"}, {"measurement": "IL-4 level in lung tissue homogenates", "setting": "[3]; oral administration", "value": "Significant effects"}, {"measurement": "IL-9 level in lung tissue homogenates", "setting": "[3]; oral administration", "value": "Significant effects"}, {"measurement": "IL-13 level in lung tissue homogenates", "setting": "[3]; oral administration", "value": "Significant effects"}]}]}
